Source: the supplement of paper PMC10307832

Experiments:
Assay in all cases: relative viability (nuclei count vs DMSO), 5 days (fraction); higher = more cells survive
[1] = compound: O=C(C[C@H]1NCCC[C@@H]1O)Cn1cnc2cc(Br)c(Cl)cc2c1=O (racemic) [Halofuginone] + Nc1ncn([C@H]2C[C@H](O)[C@@H](CO)O2)c(=O)n1 [Decitabine] (partner 2 µM)
How it was run: (§1)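 Lung cancer cell lines were seeded in 1536-well plates and dosed by pin tool the next day, with either a single drug or a fixed anchor-drug dose combined with five library-drug doses (not always all listed) spaced in √10 steps. Five days later, one step fixed the cells and stained their nuclei (final 0.05% Triton X-100, 1% formaldehyde, 1 ug/ml Hoechst), and nuclei were counted on 4× images. Relative viability is the nuclei count in treated wells divided by the count in vehicle wells, and each value is the median of duplicate plates.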

Halofuginone + Olaparib = compound: O=C(C[C@H]1NCCC[C@@H]1O)Cn1cnc2cc(Br)c(Cl)cc2c1=O (racemic) [Halofuginone] + O=C(c1cc(Cc2n[nH]c(=O)c3ccccc23)ccc1F)N1CCN(C(=O)C2CC2)CC1 [Olaparib] (partner 8 µM)
How it was run: as §1

Decitabine + Luminespib = compound: Nc1ncn([C@H]2C[C@H](O)[C@@H](CO)O2)c(=O)n1 [Decitabine] + CCNC(=O)c1noc(-c2cc(C(C)C)c(O)cc2O)c1-c1ccc(CN2CCOCC2)cc1 [Luminespib] (partner 0.01 µM)
How it was run: as §1

Decitabine + Bortezomib = compound: Nc1ncn([C@H]2C[C@H](O)[C@@H](CO)O2)c(=O)n1 [Decitabine] + CC(C)C[C@H](NC(=O)[C@H](Cc1ccccc1)NC(=O)c1cnccn1)B(O)O [Bortezomib] (partner 0.002 µM)
How it was run: as §1

Cell Line | relative viability ([1]; first compound 0.001 µM) | relative viability ([1]; first compound 0.003162 µM) | relative viability ([1]; first compound 0.01 µM) | relative viability ([1]; first compound 0.03162 µM) | relative viability ([1]; first compound 0.1 µM) | relative viability (Halofuginone + Olaparib; first compound 0.001 µM) | relative viability (Halofuginone + Olaparib; first compound 0.003162 µM) | relative viability (Halofuginone + Olaparib; first compound 0.01 µM) | relative viability (Halofuginone + Olaparib; first compound 0.03162 µM) | relative viability (Halofuginone + Olaparib; first compound 0.1 µM) | relative viability (Decitabine + Luminespib; first compound 0.04 µM) | relative viability (Decitabine + Luminespib; first compound 0.1265 µM) | relative viability (Decitabine + Luminespib; first compound 0.4 µM) | relative viability (Decitabine + Luminespib; first compound 1.265 µM) | relative viability (Decitabine + Luminespib; first compound 4 µM) | relative viability (Decitabine + Bortezomib; first compound 0.04 µM) | relative viability (Decitabine + Bortezomib; first compound 0.1265 µM) | relative viability (Decitabine + Bortezomib; first compound 0.4 µM) | relative viability (Decitabine + Bortezomib; first compound 1.265 µM) | relative viability (Decitabine + Bortezomib; first compound 4 µM)
NCI-H460 | 0.47 | 0.509 | 0.518 | 0.501 | 0.0841 | 0.417 | 0.416 | 0.466 | 0.415 | 0.083 | 0.0345 | 0.0356 | 0.0279 | 0.034 | 0.0328 | 0.909 | 0.991 | 0.811 | 0.35 | 0.272
NCI-H727 | 0.85 | 0.764 | 0.954 | 0.944 | 0.723 | 0.79 | 0.683 | 0.787 | 0.727 | 0.518 | 0.499 | 0.289 | 0.339 | 0.288 | 0.407 | 0.697 | 0.672 | 0.382 | 0.605 | 0.418
NCI-H838 | 0.502 | 0.465 | 0.445 | 0.458 | 0.281 | 0.817 | 0.784 | 0.734 | 0.527 | 0.107 | 0.213 | 0.188 | 0.296 | 0.191 | 0.165 | 0.528 | 0.381 | 0.293 | 0.296 | 0.243
NCI-H1792 | 0.652 | 0.609 | 0.529 | 0.541 | 0.186 | 0.529 | 0.424 | 0.355 | 0.42 | 0.0661 | 0.565 | 0.446 | 0.465 | 0.428 | 0.311 | 0.927 | 0.99 | 0.923 | 0.444 | 0.521
H3255 | 0.593 | 0.682 | 0.567 | 0.628 | 0.517 | 0.622 | 0.563 | 0.522 | 0.514 | 0.544 | – | 0.765 | 0.64 | 0.657 | 0.601 | 0.294 | 0.751 | 0.479 | 0.521 | 0.705
EPLC-272H | 0.421 | 0.4 | 0.39 | 0.436 | 0.351 | 1.09 | 0.775 | 0.583 | 0.764 | 0.445 | – | 0.561 | 0.249 | 0.227 | 0.321 | 0.884 | 0.57 | – | 0.584 | 0.418
NCI-H647 | 0.408 | 0.452 | 0.432 | 0.334 | 0.215 | 0.637 | 0.746 | 0.517 | 0.442 | 0.11 | 0.105 | 0.141 | 0.127 | 0.12 | 0.103 | 0.728 | 0.821 | 0.344 | 0.241 | 0.209
LXF-289 | 0.395 | 0.393 | 0.383 | 0.418 | 0.381 | 1.02 | 1.03 | 1.06 | 1.07 | 0.815 | 0.418 | 0.313 | 0.261 | 0.222 | 0.196 | 0.775 | 0.714 | 0.503 | 0.347 | 0.324
NCI-H1650 | 0.468 | 0.5 | 0.439 | 0.491 | 0.369 | 0.95 | 0.806 | 0.836 | 0.677 | 0.538 | 0.188 | 0.182 | 0.194 | 0.201 | 0.179 | 0.18 | 0.166 | 0.185 | 0.201 | 0.187
NCI-H1755 | 0.693 | 0.699 | 0.726 | 0.746 | 0.748 | 0.853 | 0.941 | 0.881 | 0.833 | 0.723 | 0.451 | 0.528 | 0.441 | 0.394 | 0.278 | 0.814 | 0.877 | 0.808 | 0.492 | 0.381
HCC-15 | 0.647 | 0.71 | 0.747 | 0.676 | 0.482 | 0.765 | 0.82 | 0.727 | 0.678 | 0.665 | 0.301 | 0.38 | 0.267 | 0.191 | 0.195 | 0.936 | 0.891 | 0.381 | 0.467 | 0.493
EMC-BAC-2 | 0.989 | 1 | 0.917 | 0.874 | 0.409 | 0.538 | 0.486 | 0.471 | 0.476 | 0.299 | 1.02 | 0.927 | 0.715 | 0.602 | 0.584 | 1.04 | 1.13 | 0.754 | 0.747 | 0.632
NCI-H1734 | 0.542 | 0.508 | 0.522 | 0.491 | 0.293 | 0.632 | 0.621 | 0.6 | 0.584 | 0.22 | 0.182 | 0.172 | 0.165 | 0.192 | 0.157 | 0.646 | 0.867 | 0.571 | 0.424 | 0.331
HOP-62 | 0.233 | 0.224 | 0.194 | 0.206 | 0.199 | 0.493 | 0.473 | 0.415 | 0.296 | 0.129 | 0.488 | 0.342 | 0.21 | 0.187 | 0.209 | 0.418 | 0.23 | 0.23 | 0.0953 | 0.0952
SW 1573 | 0.627 | 0.552 | 0.491 | 0.282 | 0.135 | 0.496 | 0.422 | 0.526 | 0.232 | 0.138 | 0.135 | 0.172 | 0.201 | 0.143 | 0.151 | 0.969 | 0.895 | 0.99 | 0.575 | 0.382
SK-LU-1 | 0.705 | 0.599 | 0.714 | 0.606 | 0.422 | 0.488 | 0.444 | 0.477 | 0.454 | 0.312 | 0.18 | 0.212 | 0.196 | 0.204 | 0.208 | 0.781 | 0.849 | 0.251 | 0.516 | 0.503
